{"source": "paper PMC6892925", "about": "“Development of Novel Silyl Cyanocinnamic Acid Derivatives as Metabolic Plasticity Inhibitors for Cancer Treatment” (Scientific Reports, 2019)", "key": {"MDA-MB-231 cells": {"tested_on": "MDA-MB-231 cells", "assay": "Western blot analysis of cell damage and death markers", "assay_type": "cell-based, human", "experimental": "(§1) Owing to the enhanced antiproliferative effects induced by test compound 2a when compared to CHC, western blot analysis of cell damage and death markers was performed. The master transcription factor p53 regulates the expression of numerous genes involved in cancer progression and is responsible for balancing proliferation and apoptosis. In this regard, we evaluated the effects of compound treatment on p53 expression. Literature reports indicate that MDA-MB-231 and WiDr cells express distinct homozygous mutant forms of p53 that promote an aggressive malignant phenotype with resistance to apoptosis[36],[37]. […] Further, PARP1 is involved in the DNA repair pathway through sensing DNA-strand breaks and recruiting repair enzymes. Importantly, PARP1 is a target of caspase cleavage under apoptotic conditions, and the appearance of the PARP1 cleavage product is a widely used indicator of cellular apoptosis. […] Additionally, DNA damage may be a downstream effect of apoptotic nuclease activity or an increase in reactive oxygen species (ROS) from damaged mitochondria; as illustrated in microscopy and seahorse experiments. Histone 2AX phosphorylation (γH2AX) resulting from DNA single- and double-strand breaks is a widely employed marker for DNA damage. In this regard, we investigated the effect of 2a on DNA damage marker γH2AX (phosphorylated Ser139, histone H2AX) with a phospho-specific antibody. […] Due to the potential of ROS leading to DNA damage and H2AX phosphorylation, we investigated the ability of antioxidant N-acetyl cysteine (NAC) to inhibit DNA damage of compound 2a as evidenced by H2AX phosphorylation in the highly oxidative cell line WiDr (Fig. 4A).\n(§2) 50,000 WiDr or MDA-MB-231 cells were seeded in 100 mm dishes and were incubated for 48 hours. Cells were then treated with test compounds for 24 hours, washed twice with 1X PBS, solubilized in 200 μL SDS boiling buffer (5% w/v SDS, 10% v/v glycerol, and 60 mM Tris pH 6.8), and sonicated. The resulting cell lysate was then assayed for protein using the Pierce BCA protocol. A volume of test sample containing 10 μg protein was loaded on SDS PAGE gel for electrophoresis according to manufacturer’s instructions. Proteins were transferred from the gel to nitrocellulose membrane according to the manufacturer’s instructions. Membranes were blocked for 1 hr at 35 °C using 10% (w/v) non-fat milk in PBST and were exposed to primary antibody. PARP1 (rabbit polyclonal IgG, Origene, TA321555), p53 (rabbit polyclonal IgG, Santa Cruz, sc50329), and γ-H2AX (Upstate 05-636, 1:2500) were detected and visualized using HRP chemiluminescence. For relative quantitation, β-actin (mouse monoclonal IgG C4, Millipore, MAB1501, 1:10,000) and GAPDH (mouse monoclonal IgG, Santa Cruz, sc47724, 1:100) were detected and measured as a control protein."}, "WiDr cells": {"tested_on": "WiDr cells", "assay": "Western blot analysis of cell damage and death markers", "assay_type": "cell-based, human", "settings": "WiDr", "experimental": "as §1, §2"}}, "data": [{"compound": "CC(C)(C)[Si](Oc1ccc(/C=C(\\C#N)C(=O)O)cc1)(c1ccccc1)c1ccccc1", "note": "[2a]", "values": [{"measurement": "PARP1 cleavage", "setting": "MDA-MB-231 cells; 100 μM, 24 hours", "value": "induced PARP1 cleavage"}, {"measurement": "expression of γH2AX (DNA damage marker)", "setting": "MDA-MB-231 cells; 100 μM, 24 hours", "value": "substantial increases"}, {"measurement": "p53 expression", "setting": "MDA-MB-231 cells; 24 hours treatment", "value": "increase in p53 expression"}, {"measurement": "PARP1 cleavage", "setting": "WiDr cells; 100 μM, 24 hours", "value": "induced PARP1 cleavage"}, {"measurement": "expression of γH2AX (DNA damage marker)", "setting": "WiDr cells; 100 μM, 24 hours", "value": "substantial increases"}, {"measurement": "p53 expression", "setting": "WiDr cells; 24 hours treatment", "value": "not in WiDr"}]}]}
